Test results taken from ChEMBL document CHEMBL5030512 (J Med Chem, 2021).
The source made the active and inactive calls. No cut-off for these calls is given here.

Experiments:
COS-7 = assay: Inhibition of GLUT1 in African green monkey COS-7 cells assessed as reduction in 2-NBDG uptake at 50 to 100 uM incubated for 90 mins by fluorescence microplate reader analysis; format: cell-based; settings: Chlorocebus aethiops, dose 50-100 µM
HCT-116 [1] = assay: Cytotoxicity against human HCT-116 cells assessed as reduction in cell viability measured after 48 hrs by SRB assay; format: functional, cell-based; settings: HCT-116, 48 h
HT-29 [2] = assay: Cytotoxicity against human HT-29 cells assessed as reduction in cell viability measured after 48 hrs by SRB assay; format: functional, cell-based; settings: HT-29, 48 h
HCT-116 [3] = assay: Cytotoxicity against human HCT-116 cells assessed as reduction in cell viability measured after 48 hrs in presence of 5 mM GSH by SRB assay; format: functional, cell-based; settings: HCT-116, 48 h
HT-29 [4] = assay: Cytotoxicity against human HT-29 cells assessed as reduction in cell viability measured after 48 hrs in presence of 5 mM GSH by SRB assay; format: functional, cell-based; settings: HT-29, 48 h
HCT-116 [5] = assay: Cytotoxicity against human HCT-116 cells assessed as reduction in cell viability treated with 5 mM GSH measured after 48 hrs in presence of 5-FU by SRB assay; format: functional, cell-based; settings: HCT-116, 48 h
HT-29 [6] = assay: Cytotoxicity against human HT-29 cells assessed as reduction in cell viability treated with 5 mM GSH measured after 48 hrs in presence of 5-FU by SRB assay; format: functional, cell-based; settings: HT-29, 48 h
HCT-116 [7] = assay: Cytotoxicity against human HCT-116 cells assessed as reduction in cell viability measured after 48 hrs in presence of 5-FU by SRB assay; format: functional, cell-based; settings: HCT-116, 48 h
HT-29 [8] = assay: Cytotoxicity against human HT-29 cells assessed as reduction in cell viability measured after 48 hrs in presence of 5-FU by SRB assay; format: functional, cell-based; settings: HT-29, 48 h
Colon cancer cell line [9] = assay: Synergistic antitumour activity against human colorectal cancer cells xenografted in BALB/c mouse assessed as reduction in tumour size at 30 mg/kg, ip administered once every 3 days for 3 weeks in presence of 10 mg/kg 5-FU; format: functional, organism-based
NHDF = assay: Cytotoxicity against NHDF assessed as reduction in cell viability measured after 48 hrs by SRB assay; format: cell-based; settings: Homo sapiens
Colon cancer cell line [10] = assay: Antitumour activity against human colorectal cancer cells xenografted in BALB/c mouse assessed as tumour suppression at 50 mg/kg, ip administered once every 3 days for 3 weeks; format: functional, organism-based
[11] = Toxicity in BALB/c mouse xenografted with human colorectal cancer cells assessed as reduction in body weight at 50 mg/kg, ip administered once every 3 days for 3 weeks; format: organism-based; set-up: scale not given: the % may be the effect or the level left; settings: in vivo, 504 h
[12] = Biodistribution in BALB/c mouse stomach at 50 mg/kg, ip measured after 1 hr; format: ADME, organism-based; settings: in vivo
[13] = Biodistribution in BALB/c mouse stomach at 9.5 mg/kg, ip measured after 1 hr; format: ADME, organism-based; settings: in vivo
[14] = Biodistribution in BALB/c mouse spleen at 9.5 mg/kg, ip measured after 1 hr; format: ADME, organism-based; settings: in vivo
[15] = Biodistribution in BALB/c mouse kidney at 9.5 mg/kg, ip measured after 1 hr; format: ADME, organism-based; settings: in vivo
[16] = Dissociation constant, pKa of compound; format: physicochemical
[17] = Stability in human plasma assessed as half life measured upto 48 hrs by RP-HPLC analysis; format: ADME, cell-free
[18] = Drug metabolism in 5 mM GSH assessed as 5-FU release after 48 hrs; format: ADME
[19] = Half life of the compound in 5 mM GSH; format: physicochemical
[20] = Drug degradation in 5 uM GSH after 48 hrs; format: ADME; settings: read-out: Drug degradation
[21] = Drug metabolism in BALB/c mouse assessed as release of 5-FU in blood at 50 mg/kg, iv measured after 2 hrs by UPLC-MS/MS analysis; format: ADME, organism-based; settings: in vivo
[22] = Drug uptake in BALB/c mouse blood at 50 mg/kg, iv measured after 30 mins by UPLC-MS/MS method; format: ADME, organism-based; settings: in vivo, 0.5 h
[23] = Drug uptake in BALB/c mouse blood at 50 mg/kg, iv measured after 45 mins by UPLC-MS/MS method; format: ADME, organism-based; settings: in vivo, 0.75 h
[24] = Drug uptake in BALB/c mouse blood at 50 mg/kg, iv measured after 4 hrs by UPLC-MS/MS method; format: ADME, organism-based; settings: in vivo
[25] = Tmax in BALB/c mouse at 50 mg/kg, ip by LC-MS/MS analysis; format: ADME, organism-based; settings: in vivo
[26] = Biodistribution in BALB/c mouse colon at 50 mg/kg, ip measured after 1 hr; format: ADME, organism-based; settings: in vivo
[27] = Biodistribution in BALB/c mouse heart at 50 mg/kg, ip measured after 1 hr; format: ADME, organism-based; settings: in vivo
[28] = Biodistribution in BALB/c mouse liver at 50 mg/kg, ip measured after 1 hr; format: ADME, organism-based; settings: in vivo
[29] = Biodistribution in BALB/c mouse colon assessed as 5-FU release at 50 mg/kg, ip measured after 1 hr; format: ADME, organism-based; settings: in vivo
[30] = Biodistribution in BALB/c mouse kidney assessed as 5-FU release at 50 mg/kg, ip measured after 1 hr; format: ADME, organism-based; settings: in vivo
[31] = Biodistribution in BALB/c mouse stomach assessed as 5-FU release at 50 mg/kg, ip measured after 1 hr; format: ADME, organism-based; settings: in vivo
[32] = Stability of compound at pH 4 to 5; format: physicochemical; settings: buffer
[33] = Stability of compound at pH >= 7; format: physicochemical

## O=C(CCc1ccc(O)cc1)c1c(O)cc(OCCOCCOCCS)cc1O
COS-7
  inhibition: inactive
HCT-116 [1]
  IC50: 15.5 µM
HT-29 [2]
  IC50: 29.1 µM
HCT-116 [3]
  IC50: 15.9 µM
HT-29 [4]
  IC50: 24.2 µM
HCT-116 [5]
  IC50: 8.73 µM
HT-29 [6]
  IC50: 3.03 µM
HCT-116 [7]
  IC50: 10.4 µM
HT-29 [8]
  IC50: 10.3 µM
Colon cancer cell line [9]
  Activity: Active

## O=c1[nH]cc(F)c(=O)[nH]1 [FLUOROURACIL]
NHDF
  IC50: 70.4 µM
Colon cancer cell line [10]
  Activity: Active
[11]
  Activity: 10%
[12]
  Drug uptake: Active
[13]
  Drug uptake: Active
[14]
  Drug uptake: Active
[15]
  Drug uptake: Active

## O=C(CCCCCN1C(=O)CC(SCCOCCOCCOc2cc(O)c(C(=O)CCc3ccc(O)cc3)c(O[C@@H]3O[C@H](CO)[C@@H](O)[C@H](O)[C@H]3O)c2)C1=O)OCn1cc(F)c(=O)[nH]c1=O (some centres not stated)
HCT-116 [1]
  IC50: 97.4 µM
HT-29 [2]
  IC50: > 100 µM
HCT-116 [3]
  IC50: > 100 µM
HT-29 [4]
  IC50: 93.6 µM

## O=C(CCCCCN1C(=O)CC(SCCOCCOCCOc2cc(O)c(C(=O)CCc3ccc(O)cc3)c(O)c2)C1=O)OCn1cc(F)c(=O)[nH]c1=O (configuration not stated)
[16]
  pKa: 8.5
[17]
  half-life: 0.8 h
HCT-116 [1]
  IC50: 75 µM
HT-29 [2]
  IC50: 43.7 µM
HCT-116 [3]
  IC50: 82.8 µM
HT-29 [4]
  IC50: 86.9 µM

## O=C(CCc1ccc(O)cc1)c1c(O)cc(O)cc1O[C@@H]1O[C@H](CO)[C@@H](O)[C@H](O)[C@H]1O
COS-7
  inhibition: inactive

## O=C(CCCSSCCOCCOCCOc1cc(O)c(C(=O)CCc2ccc(O)cc2)c(O)c1)OCn1cc(F)c(=O)[nH]c1=O
[17]
  half-life: 13 h
[18]
  Drug metabolism: Dose-Dependent Effect
[19]
  t1/2: 4 h
[20]
  degraded at 48 h: 30%
HCT-116 [1]
  IC50: 21.2 µM
HT-29 [2]
  IC50: 19.6 µM
HCT-116 [3]
  IC50: 10.5 µM
HT-29 [4]
  IC50: 3.8 µM
NHDF
  IC50: 90 µM
Colon cancer cell line [10]
  Activity: Active
[11]
  Activity: Non-Toxic
[21]
  Drug metabolism: Metabolite_Detected
[22]
  Drug uptake: Not Active
[23]
  Drug uptake: Active
[24]
  Drug uptake: Active
[25]
  Tmax: 0.75 h
[12]
  Drug uptake: Active
[26]
  Drug uptake: Active
[27]
  Drug uptake: Active
[28]
  Drug uptake: Active
[29]
  Drug uptake: Active
[30]
  Drug uptake: Active
[31]
  Drug uptake: Active

## O=C(CCc1ccc(O)cc1)c1c(O)cc(OCCOCCOCCS)cc1O[C@@H]1O[C@H](CO)[C@@H](O)[C@H](O)[C@H]1O
COS-7
  inhibition: inactive
HCT-116 [1]
  IC50: > 100 µM
HT-29 [2]
  IC50: > 100 µM
HCT-116 [3]
  IC50: > 100 µM
HT-29 [4]
  IC50: > 100 µM
HCT-116 [5]
  IC50: 13.6 µM
HT-29 [6]
  IC50: 8.58 µM
HCT-116 [7]
  IC50: 21.9 µM
HT-29 [8]
  IC50: 21 µM

## O=C(CCCSSCCOCCOCCOc1cc(O)c(C(=O)CCc2ccc(O)cc2)c(O[C@@H]2O[C@H](CO)[C@@H](O)[C@H](O)[C@H]2O)c1)OCn1cc(F)c(=O)[nH]c1=O
HCT-116 [1]
  IC50: 54.9 µM
HT-29 [2]
  IC50: 59.8 µM
HCT-116 [3]
  IC50: 23.8 µM
HT-29 [4]
  IC50: 8 µM

## O=C(CCCc1cn(CCOCCOCCOc2cc(O)c(C(=O)CCc3ccc(O)cc3)c(O[C@@H]3O[C@H](CO)[C@@H](O)[C@H](O)[C@H]3O)c2)nn1)OCn1cc(F)c(=O)[nH]c1=O
HCT-116 [1]
  IC50: > 100 µM
HT-29 [2]
  IC50: > 100 µM

## O=C(CCCc1cn(CCOCCOCCOc2cc(O)c(C(=O)CCc3ccc(O)cc3)c(O)c2)nn1)OCn1cc(F)c(=O)[nH]c1=O
[16]
  pKa: 8.5
[17]
  half-life: 3.6 h
[32]
  Stability: Stable
[33]
  Stability: Unstable
HCT-116 [1]
  IC50: > 100 µM
HT-29 [2]
  IC50: 85 µM
